{
  "source": "ChEMBL document CHEMBL1159321",
  "about": "“Novel acylated triterpene glycosides from Muraltia heisteria” (J Nat Prod, 2002)",
  "system": "HT-29",
  "test": "Cytotoxicity against human HT-29 cells at 12 to 50 ug/ml",
  "format": "functional, cell-based",
  "note": "Active and inactive are the calls of the source. No cut-off for these calls is given here.",
  "data": [
    {"compound": "COc1cc(/C=C/C(=O)O[C@@H]2[C@H](O)[C@@H](O[C@@H]3O[C@@H](C)[C@H](O[C@@H]4OC[C@@H](O)[C@H](O[C@@H]5O[C@H](CO)[C@H](O[C@@H]6OC[C@H](O)[C@H](O)[C@H]6O)[C@H](O)[C@H]5O)[C@H]4O)[C@@H](O)[C@H]3O)[C@H](OC(=O)[C@]34CCC(C)(C)C[C@H]3C3=CC[C@@H]5[C@@]6(C)C[C@H](O)[C@H](O[C@@H]7O[C@H](CO)[C@@H](O)[C@H](O)[C@H]7O)[C@@](C)(C(=O)O)[C@@H]6CC[C@@]5(C)[C@]3(CO)CC4)O[C@@H]2C)cc(OC)c1OC", "values": [
      {"measurement": "Activity", "result": "Active"}
    ]}
  ]
}
